Reference: ChEMBL document CHEMBL4834428 (J Med Chem, 2021)

Experiments:
[1] = biological target: T1, NAD-dependent protein deacetylase sirtuin-2 (Homo sapiens, UniProt Q8IXJ6); assay: Inhibition of His6-tagged/TEV fused SIRT2 (unknown origin) expressed in Escherichia coli BL21 (DE3) preincubated for 15 mins followed by NAD+ addition and measured after 30 mins by FLucK529Ac based luminescence assay
T1 sequence (Q8IXJ6 whole entry): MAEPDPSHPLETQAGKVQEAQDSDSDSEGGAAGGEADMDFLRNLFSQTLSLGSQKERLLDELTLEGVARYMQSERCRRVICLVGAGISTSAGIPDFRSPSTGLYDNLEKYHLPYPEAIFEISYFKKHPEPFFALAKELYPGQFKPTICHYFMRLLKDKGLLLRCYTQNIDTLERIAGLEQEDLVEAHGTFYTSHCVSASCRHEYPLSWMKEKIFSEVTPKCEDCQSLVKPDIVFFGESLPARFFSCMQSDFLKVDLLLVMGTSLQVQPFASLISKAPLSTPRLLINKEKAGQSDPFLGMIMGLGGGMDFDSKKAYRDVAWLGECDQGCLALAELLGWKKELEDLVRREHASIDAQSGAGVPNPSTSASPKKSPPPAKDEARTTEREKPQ

[2] = biological target: T2, NAD-dependent protein deacetylase sirtuin-3, mitochondrial (Homo sapiens, UniProt Q9NTG7); assay: Inhibition of His6-tagged/TEV fused SIRT3 (unknown origin) expressed in Escherichia coli BL21 (DE3) preincubated for 15 mins followed by NAD+ addition and measured after 30 mins by FLucK529Ac based luminescence assay
T2 sequence (Q9NTG7 whole entry): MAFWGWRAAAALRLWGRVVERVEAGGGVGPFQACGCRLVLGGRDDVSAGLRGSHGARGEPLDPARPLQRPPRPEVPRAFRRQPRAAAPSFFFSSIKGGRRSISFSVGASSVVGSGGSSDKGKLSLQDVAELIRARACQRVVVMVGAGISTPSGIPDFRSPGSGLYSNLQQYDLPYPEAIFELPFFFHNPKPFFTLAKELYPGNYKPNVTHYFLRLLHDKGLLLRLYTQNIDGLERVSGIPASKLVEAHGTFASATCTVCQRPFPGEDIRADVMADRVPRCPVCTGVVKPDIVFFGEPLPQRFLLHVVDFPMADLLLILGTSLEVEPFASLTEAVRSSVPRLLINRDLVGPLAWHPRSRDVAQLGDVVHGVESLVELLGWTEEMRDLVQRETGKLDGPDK

[3] = biological target: T3, NAD-dependent protein deacetylase sirtuin-1 (Homo sapiens, UniProt Q96EB6)
T3 sequence (Q96EB6 whole entry): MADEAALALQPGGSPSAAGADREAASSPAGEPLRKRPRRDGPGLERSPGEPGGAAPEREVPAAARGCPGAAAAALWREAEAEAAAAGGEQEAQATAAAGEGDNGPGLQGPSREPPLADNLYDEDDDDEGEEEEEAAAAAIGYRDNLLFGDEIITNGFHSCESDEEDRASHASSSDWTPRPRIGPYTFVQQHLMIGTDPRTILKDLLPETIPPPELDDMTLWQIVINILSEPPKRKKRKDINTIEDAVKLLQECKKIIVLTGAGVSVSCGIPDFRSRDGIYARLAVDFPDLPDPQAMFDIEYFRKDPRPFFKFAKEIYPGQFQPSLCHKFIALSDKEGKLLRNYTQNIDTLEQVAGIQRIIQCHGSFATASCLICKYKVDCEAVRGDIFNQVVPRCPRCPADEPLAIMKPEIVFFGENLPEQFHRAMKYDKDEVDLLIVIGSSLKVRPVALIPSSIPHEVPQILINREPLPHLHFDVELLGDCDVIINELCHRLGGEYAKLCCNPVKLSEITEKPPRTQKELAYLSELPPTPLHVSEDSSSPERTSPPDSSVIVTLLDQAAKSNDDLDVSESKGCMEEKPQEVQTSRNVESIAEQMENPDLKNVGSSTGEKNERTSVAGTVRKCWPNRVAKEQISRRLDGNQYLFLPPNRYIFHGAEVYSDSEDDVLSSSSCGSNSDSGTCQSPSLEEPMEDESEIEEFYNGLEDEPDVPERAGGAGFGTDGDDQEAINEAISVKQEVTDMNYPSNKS
Description: Inhibition of His6-tagged SIRT1 (unknown origin) expressed in Escherichia coli BL21 (DE3) preincubated for 15 mins followed by NAD+ addition and measured after 30 mins by FLucK529Ac based luminescence assay

[4] = biological target: T3, NAD-dependent protein deacetylase sirtuin-1; remark: listed apart in the source
Description: Uncompetitive inhibition of His6-tagged SIRT1 (unknown origin) expressed in Escherichia coli BL21 (DE3) assessed as inhibition constant measured every 2 mins for 30 mins in presence of NAD+ and ATP by FLucK549Ac based Michaelis-Menten analysis

| IC50 [1] [µM] | IC50 [2] [µM] | IC50 [3] [µM] | Ki [4] [µM] | Structure (SMILES) |
| --- | --- | --- | --- | --- |
| 37.7 | > 60 | 0.22 | 0.4 | N#Cc1ccccc1CN1CC(C(N)=O)Oc2ccccc21 (stereo in doubt; 4.27) |
| > 60 | > 60 | > 60 | – | CN(C)C(=O)C1CN(Cc2ccccc2)c2ccccc2O1 (stereo not given) |
| > 60 | > 60 | > 60 | – | NC(=O)C1CN(C(=O)c2cccnc2)c2ccccc2O1 (stereo not given) |
